Assay results: publication PMC5795052 (Open Biology, 2018)
pEC50: −log10 of the molar value.

Experiments:
ACKR3 [1] = assay: β-arrestin 2 recruitment assay (PRESTO-Tango) for ACKR3; assay type: cell-based, human
Description: (§1) The human AVPR1A cDNA sequence was from the AVPR1A-TANGO plasmid (Addgene, plasmid #66225). The hRLuc cDNA was PCR-amplified from pIRES-Myc-hCXCR4-Rluc, which was generously provided by Dr Michel Bouvier, with primers carrying the AgeI and XbaI sites at either end, respectively, and ligated with the C-terminus of AVPR1A at the corresponding sites. Human CXCR4 and ACKR3 cDNAs were from the CXCR4-TANGO (Addgene, plasmid #66262) and the ACKR3-TANGO (Addgene, plasmid #66265) plasmids. The EYFP cDNA was PCR-amplified from pEYFP with primers harbouring AgeI and XbaI sites and ligated with the C-terminus of ACKR3. All plasmids were confirmed by sequencing.
hVSMCs (primary aortic smooth muscle cells, ATCC PCS-100-012), A7r5 cells (ATCC-CRL-1444) and HEK293T cells (ATCC-CRL-11268) were purchased from American Type Culture Collection. hVSMCs were cultured in vascular basal media (ATCC PCS-100-030) supplemented with the vascular smooth muscle growth kit (ATCC PCS-100-042), containing 100 U ml^−1 penicillin and 100 µg ml^−1 streptomycin. hVSMCs were used between passages 2–5. HEK293T and A7r5 cells were cultured in high-glucose Dulbecco's Modified Eagle's Medium containing 10 mg ml^−1 sodium pyruvate, 2 mM L-glutamine, 10% (vol/vol) FBS, 1× non-essential amino acids, 100 U ml^−1 penicillin and 100 µg ml^−1 streptomycin. The HTLA cell line, a HEK293 cell line stably expressing a tTA-dependent luciferase reporter and a β-arrestin 2–TEV fusion gene were generously provided by the laboratory of Dr Bryan Roth and maintained in high-glucose Dulbecco's Modified Eagle's Medium supplemented with 10% (vol/vol) FBS, 1× non-essential amino acids, 100 U ml^−1 penicillin, 100 µg ml^−1 streptomycin, 50 µg ml^−1 hygromycin B and 2 µg ml^−1 puromycin. […]
The PRESTO-Tango (parallel receptorome expression and screening via transcriptional output, with transcriptional activation following arrestin translocation) assay was performed as recently described. […] Plates were then incubated at room temperature before measuring luminescence on a Biotek Synergy II plate reader.

[2] = system: aVP-induced IP3 production in hVSMC; assay: IP3 production (ELISA) in hVSMC upon aVP stimulation; assay type: cell-based, human; details: ACKR3 ligands 1 µM, 15 min, then 1 µM aVP for 5 min; n = 4; figure 1f; *p < 0.05 versus vehicle-treated cells
Procedure: (§2) hVSMCs (primary aortic smooth muscle cells, ATCC PCS-100-012), A7r5 cells (ATCC-CRL-1444) and HEK293T cells (ATCC-CRL-11268) were purchased from American Type Culture Collection. hVSMCs were cultured in vascular basal media (ATCC PCS-100-030) supplemented with the vascular smooth muscle growth kit (ATCC PCS-100-042), containing 100 U ml^−1 penicillin and 100 µg ml^−1 streptomycin. hVSMCs were used between passages 2–5. HEK293T and A7r5 cells were cultured in high-glucose Dulbecco's Modified Eagle's Medium containing 10 mg ml^−1 sodium pyruvate, 2 mM L-glutamine, 10% (vol/vol) FBS, 1× non-essential amino acids, 100 U ml^−1 penicillin and 100 µg ml^−1 streptomycin. The HTLA cell line, a HEK293 cell line stably expressing a tTA-dependent luciferase reporter and a β-arrestin 2–TEV fusion gene were generously provided by the laboratory of Dr Bryan Roth and maintained in high-glucose Dulbecco's Modified Eagle's Medium supplemented with 10% (vol/vol) FBS, 1× non-essential amino acids, 100 U ml^−1 penicillin, 100 µg ml^−1 streptomycin, 50 µg ml^−1 hygromycin B and 2 µg ml^−1 puromycin. All cells were cultured in a humidified environment at 37°C, 5% CO2.
ACKR3 and CXCR4 siRNA gene silencing was performed as described previously. In brief, cells were grown in 2 ml Accell siRNA delivery media per well (Dharmacon) in six-well plates (Nunc). Commercially available Accell ACKR3 and CXCR4 siRNA were reconstituted with 1× siRNA buffer to a stock concentration of 100 µM. Cells were then transfected with 1 µM ACKR3/CXCR4 siRNA and incubated for 72 h at 37°C, 5% CO2. Accell NT-siRNA pool was used as a negative control. After 72 h, cells were assayed for receptor cell surface expression and used for signalling experiments.
IP3 enzyme-linked immunosorbent assays were purchased from LS Bio and performed as per the manufacturer's protocol (LS BIO F10644). In brief, hVSMCs were grown to confluency in six-well dishes (Nunc) and then treated as described in the Results section. Cells were then washed once with cold PBS, 225 µl of cold PBS was added to each well and cells were lysed by ultrasonication. The cell lysate was centrifuged for 10 min at 4°C at 1500g to remove cellular debris. The total protein concentration in the supernatant was determined with the Bio-Rad DC Protein Assay as per the manufacturer's protocol (Bio-Rad 500-0116). Equivalent amounts of total protein were added to the ELISA strips diluted in the provided sample diluent (1 : 5 and 1 : 10). The assay was then completed as per the manufacturer's protocol. Optical densities were read on a Biotek Synergy II microplate reader (absorbance at 450 nm), and IP3 concentrations were extrapolated from the standard curve.

ACKR3 [3] = assay: β-arrestin 2 recruitment assay (PRESTO-Tango) for ACKR3 co-expressed with pcDNA3 or HA-AVPR1A; assay type: cell-based, human; details: ACKR3-Tango/HA-AVPR1A versus ACKR3-Tango/pcDNA3; n = 3; figure 9e,f
Description: as §1, §2
The PRESTO-Tango (parallel receptorome expression and screening via transcriptional output, with transcriptional activation following arrestin translocation) assay was performed as recently described. The Tango plasmids were a gift from Dr Bryan Roth (all from Addgene). HTLA cells (2.5 × 10^5 per well) were seeded in a six-well plate and transfected with 1.5 µg of the Tango plasmids using Lipofectamine 3000 (ThermoScientific). The following day, transfected HTLA cells (1 × 10^5 cells per well) were plated onto poly-L-lysine precoated 96-well microplates and allowed to attach to the plate surface for at least 4 h prior to treatment. Proteins used for treatment were prepared in twice the final concentration in culture media, added at a 1 : 1 vol/vol ratio and incubated overnight at 37°C, 5% CO2 in a humidified environment. The following morning, media were removed from cell culture plates and replaced with a 100 µl 1 : 5 mixture of Bright-Glo (Promega) and 1× HBSS, 20 mM HEPES solution. Plates were then incubated at room temperature before measuring luminescence on a Biotek Synergy II plate reader.

ACKR3 [4] = system: ACKR3; parameters: method as in PMID 27875312; details: BRET-based assay; CXCL12 versus CXCL11; ref [30]; cited from earlier work
[5] = system: rat mesenteric arteries (PE-induced vasoconstriction); assay: Pressure myography, PE-preconstricted isolated rat mesenteric arteries; details: 10 µM ligand, 2 µM PE; figure 1d; vehicle n = 5, CXCL11 n = 7, CXCL11 (3–73) n = 9, CXCL12 n = 14; p < 0.05 vehicle versus CXCL11 and CXCL12; p > 0.05 CXCL11 versus CXCL12
Procedure: (§4) (a,b) Pressure myography with rat mesenteric arteries. […] (d) Pressure myography experiments as in (a); PE-induced vasoconstriction. All ACKR3 ligands were tested at a concentration of 10 µM. […] All ACKR3 ligands were tested at a concentration of 10 µM.
(§5) Pressure myography was performed as described in detail previously with slight modifications [7, 63]. Male Sprague–Dawley rats (Harlan) were anaesthetized with 3.5% isoflurane. The mesentery was immediately removed and placed in 130 mM NaCl, 4.7 mM KCl, 1.18 mM KH2PO4, 1.17 mM MgSO4, 14.9 mM NaHCO3, 5.5 mM D-glucose, 0.026 mM EDTA and 1.16 mM CaCl2 aerated with 95% O2, 5% CO2 at 37°C. The animal was then euthanized by cardiectomy and bilateral decompression of the lungs. Third- or fourth-order mesenteric arteries were dissected free from the mesentery, mounted onto two glass cannulae with United States Pharmacopeia (USP) scale 11-0 sutures and pressurized to 80 mmHg in a DMT 110P pressure myograph system (DMT-USA). The intraluminal solution and the vessel bath solution were the same as described before. The vessel bath solution was continuously aerated with 95% O2, 5% CO2 throughout the experiment.

[6] = system: rat mesenteric arteries (aVP-induced vasoconstriction); assay: Pressure myography, aVP-preconstricted isolated rat mesenteric arteries; details: 10 µM ligand, 0.5 nM aVP; figure 1e; vehicle n = 4, CXCL11 n = 3, CXCL11 (3–73) n = 3, CXCL12 n = 3; p < 0.05 vehicle versus CXCL11 and CXCL12; p > 0.05 CXCL11 versus CXCL12
Procedure: as §4, §5

AVPR1A [7] = target: T1, AVPR1A (Homo sapiens, UniProt P37288); assay: β-arrestin 2 recruitment assay (PRESTO-Tango) for AVPR1A without ACKR3 co-expression; assay type: cell-based; parameters: FLAG (N); Tango module (C-terminal fusion of the PRESTO-Tango plasmid); host or cells: HTLA cells (HEK293 line with tTA-dependent luciferase reporter and β-arrestin 2–TEV fusion); details: AVPR1A-Tango/pcDNA3; n = 3; figure 9c
Description: as §1
(§3) hVSMCs (primary aortic smooth muscle cells, ATCC PCS-100-012), A7r5 cells (ATCC-CRL-1444) and HEK293T cells (ATCC-CRL-11268) were purchased from American Type Culture Collection. hVSMCs were cultured in vascular basal media (ATCC PCS-100-030) supplemented with the vascular smooth muscle growth kit (ATCC PCS-100-042), containing 100 U ml^−1 penicillin and 100 µg ml^−1 streptomycin. hVSMCs were used between passages 2–5. HEK293T and A7r5 cells were cultured in high-glucose Dulbecco's Modified Eagle's Medium containing 10 mg ml^−1 sodium pyruvate, 2 mM L-glutamine, 10% (vol/vol) FBS, 1× non-essential amino acids, 100 U ml^−1 penicillin and 100 µg ml^−1 streptomycin. […]
Target sequence in this assay (P37288 whole entry, the tested form may be a part): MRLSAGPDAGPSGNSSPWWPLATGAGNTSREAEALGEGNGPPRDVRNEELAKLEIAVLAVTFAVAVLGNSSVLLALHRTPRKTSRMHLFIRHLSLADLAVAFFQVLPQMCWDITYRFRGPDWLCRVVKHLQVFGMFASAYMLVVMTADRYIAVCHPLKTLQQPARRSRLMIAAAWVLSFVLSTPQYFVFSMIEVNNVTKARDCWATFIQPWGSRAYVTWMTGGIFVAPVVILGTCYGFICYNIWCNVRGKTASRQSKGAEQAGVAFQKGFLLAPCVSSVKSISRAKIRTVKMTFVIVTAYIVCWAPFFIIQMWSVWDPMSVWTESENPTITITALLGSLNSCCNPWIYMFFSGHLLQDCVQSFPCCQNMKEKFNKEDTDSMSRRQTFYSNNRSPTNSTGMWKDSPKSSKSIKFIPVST

AVPR1A [8] = target: T1, AVPR1A; assay: β-arrestin 2 recruitment assay (PRESTO-Tango) for AVPR1A co-expressed with HA-ACKR3; assay type: cell-based; parameters: FLAG (N); Tango module (C-terminal fusion of the PRESTO-Tango plasmid); ACKR3 cDNA from plasmid #66265; host or cells: HTLA cells (HEK293 line with tTA-dependent luciferase reporter and β-arrestin 2–TEV fusion); details: n = 3, figure 9c
Description: as §1, §3
Target sequence in this assay (P37288 whole entry, the tested form may be a part): as above
Target sequence in this assay (P25106 whole entry partner, the tested form may be a part): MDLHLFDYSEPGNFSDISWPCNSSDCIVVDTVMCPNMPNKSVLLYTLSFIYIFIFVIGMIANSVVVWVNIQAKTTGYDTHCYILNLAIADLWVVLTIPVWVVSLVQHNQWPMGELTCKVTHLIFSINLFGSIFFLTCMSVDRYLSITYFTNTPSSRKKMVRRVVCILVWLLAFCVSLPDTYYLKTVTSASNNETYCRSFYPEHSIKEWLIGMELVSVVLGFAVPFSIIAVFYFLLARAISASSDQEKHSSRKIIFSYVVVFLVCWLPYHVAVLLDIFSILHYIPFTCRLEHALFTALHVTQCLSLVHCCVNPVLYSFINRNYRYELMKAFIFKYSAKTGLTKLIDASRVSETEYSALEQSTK

In the case of C-X-C chemokine ligand 12 [CXCL12], the “potency to recruit β-arrestin 2 to ACKR3, fold higher than CXCL11” value (ACKR3 [1]; CXCL12 versus CXCL11, p < 0.01) was 2.2 -fold, the “efficacy for β-arrestin 2 recruitment to ACKR3 (in words)” value (ACKR3 [1]; HTLA cells, n = 3, CXCL11 versus CXCL12) was “comparable efficacy” and the pEC50 (ACKR3 [1]; HTLA cells, overnight at 37°C, luminescence, n = 3 independent experiments, 95% confidence interval in brackets, read-out: EC50 (95% CI) β-arrestin 2 recruitment to ACKR3) was 8.89. The “effect of ACKR3 ligand pretreatment on aVP-induced IP3 production” value [2] was “inhibited aVP-induced IP3 production”, the “effect of AVPR1A co-expression on efficacy to recruit β-arrestin 2 to ACKR3-Tango” value (ACKR3 [3]) was “significantly reduced the efficacy” and the “effect of AVPR1A co-expression on potency to recruit β-arrestin 2 to ACKR3-Tango” value (ACKR3 [3]) was “without affecting the potency”. The “potency to induce β-arrestin recruitment to ACKR3, fold higher than CXCL11” value (ACKR3 [4]) was “twofold higher”, the “effect on PE-induced vasoconstriction, comparison of ACKR3 ligands” value [5] was “attenuated PE- and aVP-induced vasoconstriction to a similar degree” and the “effect on aVP-induced vasoconstriction, comparison of ACKR3 ligands” value [6] was “attenuated PE- and aVP-induced vasoconstriction to a similar degree”. The “β-arrestin 2 recruitment to AVPR1A-Tango by chemokines, absence of ACKR3” value (AVPR1A [7]) was “did not induce β-arrestin 2 recruitment to AVPR1A-Tango” and the “β-arrestin 2 recruitment to AVPR1A-Tango by chemokines, presence of ACKR3” value (AVPR1A [8]) was “did not induce β-arrestin 2 recruitment to AVPR1A-Tango”.
